Read-outs that look alike come from different tables or passages of the source.
Columns and labels:
recombinant human AChE = target: T1, recombinant human AChE (Homo sapiens, UniProt P22303); assay: Reversible inhibition of AChE, Ellman method; type: biochemical; details: 0.1 M phosphate buffer pH 7.4, 25 °C, substrate ATCh; maximal tested concentration 100 µM for the trans derivatives (DMSO inhibits AChE); read-out: IC50 AChE (IC50 ± SE)
T1 construct: made in house

[1] = target: T2, BChE isolated from human plasma (Homo sapiens, UniProt P06276); assay: Reversible inhibition of BChE, Ellman method; type: biochemical; details: for IC50: 0.1 M phosphate buffer pH 7.4, 25 °C, substrate ATCh, at least three experiments
T2 construct: BChE isolated from human plasma; from tissue; host or cells: human plasma
T2 sequence (P06276 29-602): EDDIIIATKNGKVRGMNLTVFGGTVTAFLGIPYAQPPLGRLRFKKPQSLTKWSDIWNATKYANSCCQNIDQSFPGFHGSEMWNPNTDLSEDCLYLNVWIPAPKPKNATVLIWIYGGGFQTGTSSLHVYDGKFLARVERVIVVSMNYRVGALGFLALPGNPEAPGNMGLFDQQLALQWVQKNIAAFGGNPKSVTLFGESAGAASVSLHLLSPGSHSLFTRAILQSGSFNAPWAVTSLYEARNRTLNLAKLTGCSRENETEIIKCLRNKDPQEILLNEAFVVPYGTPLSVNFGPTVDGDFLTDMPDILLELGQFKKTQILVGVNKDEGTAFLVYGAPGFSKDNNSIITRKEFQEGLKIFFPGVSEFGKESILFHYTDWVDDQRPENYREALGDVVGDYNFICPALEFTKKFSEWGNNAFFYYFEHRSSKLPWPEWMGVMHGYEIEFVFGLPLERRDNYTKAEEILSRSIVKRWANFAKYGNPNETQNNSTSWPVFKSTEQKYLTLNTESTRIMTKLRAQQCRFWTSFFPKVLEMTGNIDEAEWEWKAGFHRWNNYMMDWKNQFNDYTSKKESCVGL
Method: Inhibition potency of novel compounds was evaluated for recombinant human AChE (prepared as described earlier[25] and kindly donated by Prof Palmer Taylor, Skaggs School of Pharmacy and Pharmaceutical Sciences, University of California at San Diego, La Jolla, USA) and BChE isolated from human plasma (kindly donated by late Dr Douglas Cerasoli and Dr David Lenz, […], Edgewood, MD). The inhibition mixture contained a 0.1 M phosphate buffer, pH 7.4, enzyme, tested compound, and reagent, 5,5'-dithiobis(2-nitrobenzoic acid) (DTNB, 0.3 mM; Sigma Chemical Co., St. Louis, MO, USA). Enzyme activity was measured upon addition of substrate, acetylthiocholine (ATCh, 0.2 or 0.1 mM; Sigma Chemical Co., St. Louis, MO, USA) by the Ellman method[26] at 25 °C and 412 nm, on a Tecan Infinite M200PRO plate reader (Tecan Austria, GmbH, Salzburg, Austria). Due to the low solubility, a stock solution of the tested compounds was prepared in DMSO or methanol (Kemika, Zagreb, Croatia), and a corresponding solvent was in controls as well. The IC50 values were determined from at least three experiments by a nonlinear fit of the compound concentration logarithm values vs. % of enzyme activity using Prism6 software (GraphPad Prism 6 Software, San Diego, USA).

[2] = read-out: IC50 BChE (IC50 ± SE)

T1 sequence (P22303 32-614): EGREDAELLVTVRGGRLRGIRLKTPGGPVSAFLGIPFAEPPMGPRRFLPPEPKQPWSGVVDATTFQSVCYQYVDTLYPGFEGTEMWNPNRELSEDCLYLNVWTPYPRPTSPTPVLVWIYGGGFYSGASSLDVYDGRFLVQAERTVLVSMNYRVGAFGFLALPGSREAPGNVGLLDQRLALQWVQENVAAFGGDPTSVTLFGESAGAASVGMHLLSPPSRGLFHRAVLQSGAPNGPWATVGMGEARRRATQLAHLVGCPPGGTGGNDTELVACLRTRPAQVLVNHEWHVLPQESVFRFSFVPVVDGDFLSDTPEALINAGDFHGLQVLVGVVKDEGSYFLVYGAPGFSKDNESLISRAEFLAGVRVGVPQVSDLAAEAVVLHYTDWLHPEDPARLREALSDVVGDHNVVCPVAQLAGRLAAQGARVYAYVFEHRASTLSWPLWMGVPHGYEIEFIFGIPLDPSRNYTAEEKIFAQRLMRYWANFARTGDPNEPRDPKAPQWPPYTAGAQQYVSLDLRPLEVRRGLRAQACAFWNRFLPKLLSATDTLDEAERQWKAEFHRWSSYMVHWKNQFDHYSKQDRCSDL

`c1ccc(CNc2ccc3ccc4ocnc4c3c2)cc1` [Compound 19, N-benzylnaphtho[1,2-d]oxazol-8-amine] was tested, and the IC50 (recombinant human AChE) was 68 ± 25 µM and the IC50 [1, 2] was 140 ± 24 µM.
`Fc1ccc(CNc2ccc3ccc4ocnc4c3c2)cc1` [Compound 20, N-(4-fluorobenzyl)naphtho[1,2-d]oxazol-8-amine] was tested, and the IC50 (recombinant human AChE) was 45 ± 17 µM, the IC50 [1, 2] was 12 ± 1.3 µM and the “fold higher potency for BChE than counterpart trans-6” value ([1]; ratio of IC50 vs trans-6) was “about 8 fold”.
For `c1csc(CNc2ccc3ccc4ocnc4c3c2)c1` [Compound 21, N-(thiophen-2-ylmethyl)naphtho[1,2-d]oxazol-8-amine], the IC50 (recombinant human AChE) was 51 ± 20 µM and the IC50 [1, 2] was 35 ± 7.1 µM.
Compound `Nc1ccc2ccc3ocnc3c2c1` [Compound 23, Naphtho[1,2-d]oxazol-8-amine] has an IC50 (recombinant human AChE) of 120 ± 46 µM and an IC50 [1, 2] of 1000 ± 650 µM.
`CCN(CC)C(C)CN1c2ccccc2Sc2ccccc21` (centres unmarked) [Ethopropazine, reference compound] showed an IC50 ([1]; IC50 BChE (IC50 ± SE)) of 0.046 ± 0.0037 µM.
With `C(=C/c1cnco1)/c1ccc(NCc2cccs2)cc1` [cis-18, (Z)-4–(2-(oxazol-5-yl)vinyl)-N-(thiophen-2-ylmethyl)aniline] the IC50 (recombinant human AChE) was 160 ± 100 µM, the IC50 [1, 2] was 5.7 ± 0.8 µM and the “times more potent inhibitor of BChE than trans-12, trans-10 and trans-8” value ([1]; ratio of IC50 vs trans-12, trans-10, trans-8) was “about 5 times”.
`Nc1ccc(/C=C\c2cnco2)cc1` [cis-22, (Z)-4–(2-(oxazol-5-yl)vinyl)aniline] gave an IC50 (recombinant human AChE) of 190 ± 100 µM and an IC50 [1, 2] of 110 ± 58 µM.
In the case of `C(=C\c1cnco1)/c1ccc(NCc2ccccc2)cc1` [trans-2, (E)-N-benzyl-4–(2-(oxazol-5-yl)vinyl)aniline], the IC50 (recombinant human AChE) is reported as > 100 µM and the IC50 [1, 2] is reported as 120 ± 22 µM.
For `Cc1ccc(CNc2ccc(/C=C/c3cnco3)cc2)cc1` [trans-3, (E)-N-(4-methylbenzyl)-4–(2-(oxazol-5-yl)vinyl)aniline], the IC50 (recombinant human AChE) was > 100 µM and the IC50 [1, 2] was 120 ± 19 µM.
In the case of `COc1ccc(CNc2ccc(/C=C/c3cnco3)cc2)cc1` [trans-4, (E)-N-(4-methoxybenzyl)-4–(2-(oxazol-5-yl)vinyl)aniline], the IC50 (recombinant human AChE) is reported as > 100 µM and the IC50 [1, 2] is reported as 110 ± 15 µM.
With `Clc1ccc(CNc2ccc(/C=C/c3cnco3)cc2)cc1` [trans-5, (E)-N-(4-chlorobenzyl)-4–(2-(oxazol-5-yl)vinyl)aniline] the IC50 (recombinant human AChE) was > 100 µM and the IC50 [1, 2] was 87 ± 12 µM.
With `Fc1ccc(CNc2ccc(/C=C/c3cnco3)cc2)cc1` [trans-6, (E)-N-(4-fluorobenzyl)-4–(2-(oxazol-5-yl)vinyl)aniline] the IC50 (recombinant human AChE) was > 100 µM and the IC50 [1, 2] was 80 ± 10 µM.
`Cc1cccc(CNc2ccc(/C=C/c3cnco3)cc2)c1` [trans-7, (E)-N-(3-methylbenzyl)-4–(2-(oxazol-5-yl)vinyl)aniline] was tested, and the IC50 (recombinant human AChE) was > 100 µM and the IC50 [1, 2] was 130 ± 26 µM.
For `COc1cccc(CNc2ccc(/C=C/c3cnco3)cc2)c1` [trans-8, (E)-N-(3-methoxybenzyl)-4–(2-(oksazol-5-yl)vinyl)aniline], the IC50 (recombinant human AChE) was > 100 µM and the IC50 [1, 2] was 36 ± 4.4 µM.
`Fc1cccc(CNc2ccc(/C=C/c3cnco3)cc2)c1` [trans-10, (E)-N-(3-fluorobenzyl)-4–(2-(oxazol-5-yl)vinyl)aniline] was tested, and the IC50 (recombinant human AChE) was > 100 µM and the IC50 [1, 2] was 32 ± 5.2 µM.
With `Cc1ccccc1CNc1ccc(/C=C/c2cnco2)cc1` [trans-11, (E)-N-(2-methylbenzyl)-4–(2-(oxazol-5-yl)vinyl)aniline] the IC50 (recombinant human AChE) was > 100 µM, the IC50 [1, 2] was 160 ± 35 µM and the “fold lower BChE binding affinity than the most potent inhibitor trans-12” value ([1]; ratio of IC50 vs trans-12) was 5.5 fold.
In the case of `COc1ccccc1CNc1ccc(/C=C/c2cnco2)cc1` [trans-12, (E)-N-(2-methoxybenzyl)-4–(2-(oxazol-5-yl)vinyl)aniline], the IC50 (recombinant human AChE) is reported as > 100 µM and the IC50 [1, 2] is reported as 28 ± 5.2 µM.
For `C(=C\c1cnco1)/c1ccc(NCc2ccco2)cc1` [trans-17, (E)-N-(furan-2-ylmethyl)-4–(2-(oxazol-5-yl)vinyl)aniline], the IC50 (recombinant human AChE) was > 100 µM and the IC50 [1, 2] was 65 ± 10 µM.

From publication PMC6968547, “Design, synthesis and cholinesterase inhibitory properties of new oxazole benzylamine derivatives” (Journal of Enzyme Inhibition and Medicinal Chemistry, 2020)
